Data reported in PubChem BioAssay AID330 (DTP/NCI, 2004).
Values joined by “and” are separate entries in the source; they are usually repeats but may differ in a detail not shown here. Identical values can stand only once. Toxic doses and inconclusive results are not listed. How the source made its calls: active means survival T/C of 150% or more; inactive means T/C below 125% in these data.

Test system: P388 leukemia ip, CD2F1 mice, survival T/C
Experiment: NCI In Vivo Anticancer Drug Screen. Data for tumor model P388 Leukemia (intraperitoneal) in CD2F1 (CDF1) mice
Conditions: endpoint: median survival time, higher = longer survival
In short: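 Mice carrying the transplanted tumor received test compound or vehicle. Survival was recorded in each group, and the value is the treated-group measurement divided by that of the vehicle-treated control group.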

[1] = dose: 25.0 mg/kg/injection, schedule: Q01DX009 (ip), vehicle: saline with Tween-80
[2] = dose: 50.0 mg/kg/injection, schedule: Q01DX009 (ip), vehicle: saline with Tween-80
[3] = dose: 50.0 mg/kg/injection, schedule: Q01DX009 (ip), vehicle: saline
[4] = dose: 100.0 mg/kg/injection, schedule: Q01DX009 (ip), vehicle: saline with Tween-80
[5] = dose: 50.0 mg/kg/injection, schedule: Q01DX005 (ip), vehicle: saline with Tween-80
[6] = dose: 100.0 mg/kg/injection, schedule: Q01DX005 (ip), vehicle: saline with Tween-80
[7] = dose: 200.0 mg/kg/injection, schedule: Q01DX005 (ip), vehicle: saline with Tween-80
[8] = dose: 12.5 mg/kg/injection, schedule: Q01DX005 (ip), vehicle: Klucel (hydroxypropylcellulose) (HPC)
[9] = dose: 50.0 mg/kg/injection, schedule: Q01DX005 (ip), vehicle: Klucel (hydroxypropylcellulose) (HPC)
[10] = dose: 100.0 mg/kg/injection, schedule: Q01DX005 (ip), vehicle: Klucel (hydroxypropylcellulose) (HPC)
[11] = dose: 50.0 mg/kg/injection, schedule: Q01DX009 (ip), vehicle: Klucel (hydroxypropylcellulose) (HPC)
[12] = dose: 100.0 mg/kg/injection, schedule: Q01DX009 (ip), vehicle: Klucel (hydroxypropylcellulose) (HPC)
[13] = dose: 200.0 mg/kg/injection, schedule: Q01DX005 (ip), vehicle: Klucel (hydroxypropylcellulose) (HPC)
[14] = dose: 60.0 mg/kg/injection, schedule: Q01DX005 (ip), vehicle: saline with Tween-80
[15] = dose: 120.0 mg/kg/injection, schedule: Q01DX005 (ip), vehicle: saline with Tween-80
[16] = dose: 240.0 mg/kg/injection, schedule: Q01DX005 (ip), vehicle: saline with Tween-80
[17] = dose: 12.5 mg/kg/injection, schedule: Q01DX009 (ip), vehicle: saline with Tween-80

Measured: T/C

COc1cc2c(cc1OC)C1C(O)C(OC)C=C3CCN(C2)C31 (configuration not stated)
inactive: [1] 114 % of control | [2] 114 % of control | [3] 93 % of control | [4] 118 % of control | dose: 100.0 mg/kg/injection, schedule: Q01DX009 (ip), vehicle: saline 119 % of control | dose: 200.0 mg/kg/injection, schedule: Q01DX009 (ip), vehicle: saline 102 % of control

O=C(OC(c1ccccc1)c1ccccc1)C1CSCN1C(=O)OCc1ccccc1[N+](=O)[O-] (configuration not stated)
inactive: [5] 108 % of control | [6] 110 % of control | [7] 100 % of control

Cc1nc(N)[nH]c(=O)c1N
inactive: [8] 99 % of control | dose: 25.0 mg/kg/injection, schedule: Q01DX005 (ip), vehicle: Klucel (hydroxypropylcellulose) (HPC) 108 % of control | [9] 103 % of control and 98 % of control | [10] 110 % of control

COc1cc2c(cc1OC)C(C)(C)N(Cc1ccccc1)C(C)C2(C)C (configuration not stated)
inactive: dose: 3.12 mg/kg/injection, schedule: Q01DX009 (ip), vehicle: Klucel (hydroxypropylcellulose) (HPC) 105 % of control | dose: 6.25 mg/kg/injection, schedule: Q01DX009 (ip), vehicle: Klucel (hydroxypropylcellulose) (HPC) 105 % of control | dose: 12.5 mg/kg/injection, schedule: Q01DX009 (ip), vehicle: Klucel (hydroxypropylcellulose) (HPC) 114 % of control | dose: 25.0 mg/kg/injection, schedule: Q01DX009 (ip), vehicle: Klucel (hydroxypropylcellulose) (HPC) 107 % of control | [11] 112 % of control

CC(=O)N(C(C)=O)N1C(=O)C2C3C=CC(C4CC34)C2C1=O (configuration not stated)
inactive: [11] 92 % of control | [12] 94 % of control

O=C1OC(c2ccccc2)CC1N1CCOCC1 (configuration not stated)
inactive: [4] 100 % of control | dose: 100.0 mg/kg/injection, schedule: Q04DX003 (ip), vehicle: saline sonified 100 % of control | dose: 200.0 mg/kg/injection, schedule: Q01DX009 (ip), vehicle: saline with Tween-80 100 % of control | dose: 400.0 mg/kg/injection, schedule: Q01DX009 (ip), vehicle: saline with Tween-80 100 % of control | dose: 400.0 mg/kg/injection, schedule: Q04DX003 (ip), vehicle: saline sonified 89 % of control

O=C1Nc2c(cccc2-c2ccccc2)C(=O)C1(O)c1ccccc1 (configuration not stated)
inactive: dose: 60.0 mg/kg/injection, schedule: Q01DX005 (ip), vehicle: Klucel (hydroxypropylcellulose) (HPC) 97 % of control | dose: 120.0 mg/kg/injection, schedule: Q01DX005 (ip), vehicle: Klucel (hydroxypropylcellulose) (HPC) 94 % of control | dose: 240.0 mg/kg/injection, schedule: Q01DX005 (ip), vehicle: Klucel (hydroxypropylcellulose) (HPC) 90 % of control

CC(C)=CCCC(C)(OC1OC(CO)C(O)C(O)C1O)C1CCC2(C)C1C(O)CC1C3(C)CCC(O)C(C)(C)C3C(OC3OC(CO)C(O)C(O)C3OC3OC(C)C(O)C(O)C3O)CC12C (configuration not stated) (tested in a mixture with another compound)
inactive: dose: 18.75 mg/kg/injection, schedule: Q01DX009 (ip), vehicle: Klucel (hydroxypropylcellulose) (HPC) 101 % of control | dose: 37.5 mg/kg/injection, schedule: Q01DX009 (ip), vehicle: Klucel (hydroxypropylcellulose) (HPC) 101 % of control | dose: 75.0 mg/kg/injection, schedule: Q01DX009 (ip), vehicle: Klucel (hydroxypropylcellulose) (HPC) 100 % of control | dose: 150.0 mg/kg/injection, schedule: Q01DX009 (ip), vehicle: Klucel (hydroxypropylcellulose) (HPC) 100 % of control

O=c1[nH]c(=O)n(C2CC(O)C(CO)O2)cc1O (configuration not stated)
inactive: dose: 50.0 mg/kg/injection, schedule: Q04DX003 (ip), vehicle: saline with Tween-80 100 % of control | dose: 100.0 mg/kg/injection, schedule: Q04DX003 (ip), vehicle: saline with Tween-80 101 % of control | dose: 200.0 mg/kg/injection, schedule: Q04DX003 (ip), vehicle: saline with Tween-80 99 % of control | dose: 400.0 mg/kg/injection, schedule: Q04DX003 (ip), vehicle: saline with Tween-80 101 % of control

O=C1C(=Cc2ccccc2O)C(=O)N(c2ccccc2)C(=S)N1c1ccccc1
inactive: [9] 100 % of control | [10] 100 % of control | [13] 100 % of control

Cc1ccc(S(=O)(=O)OCCOCCOc2ccc3ccccc3c2-c2c(OCCOS(=O)(=O)c3ccc(C)cc3)ccc3ccccc23)cc1
inactive: dose: 100.0 mg/kg/injection, schedule: Q01DX001 (ip), vehicle: saline with Tween-80 89 % of control | dose: 200.0 mg/kg/injection, schedule: Q01DX001 (ip), vehicle: saline with Tween-80 100 % of control

O=C1C(Cl)=C(Oc2ccccc2Cl)C(=O)C(Cl)=C1Oc1ccccc1Cl
inactive: dose: 3.12 mg/kg/injection, schedule: Q01DX005 (ip), vehicle: Klucel (hydroxypropylcellulose) (HPC) 91 % of control and 96 % of control | dose: 6.25 mg/kg/injection, schedule: Q01DX005 (ip), vehicle: Klucel (hydroxypropylcellulose) (HPC) 98 % of control and 92 % of control | [8] 86 % of control and 87 % of control and 97 % of control | [9] 102 % of control | [10] 99 % of control | [13] 96 % of control

C=C1C(=O)C23C(OC(=O)CCCCCCCCCCC)C1CCC2C12COC3(O)C(O)C1C(C)(C)CCC2O (configuration not stated)
inactive: dose: 3.75 mg/kg/injection, schedule: Q01DX009 (ip), vehicle: saline with Tween-80 98 % of control | dose: 7.5 mg/kg/injection, schedule: Q01DX009 (ip), vehicle: saline with Tween-80 103 % of control | dose: 15.0 mg/kg/injection, schedule: Q01DX009 (ip), vehicle: saline with Tween-80 95 % of control | dose: 30.0 mg/kg/injection, schedule: Q01DX009 (ip), vehicle: saline with Tween-80 100 % of control

COC(=O)CC1C(C)(C)C(=O)C2CC3=C4CC(=O)OC(c5ccoc5)C4(C)CCC3C1(C)C2=O (configuration not stated)
inactive: [14] 97 % of control | [15] 92 % of control | [16] 89 % of control

N=C(N)c1ccc(SCCCCCSc2ccc(C(=N)N)cc2)cc1
inactive: dose: 3.13 mg/kg/injection, schedule: Q01DX009 (ip), vehicle: saline with Tween-80 117 % of control | dose: 6.25 mg/kg/injection, schedule: Q01DX009 (ip), vehicle: saline with Tween-80 124 % of control | [17] 119 % of control

CCC1CC(O)c2c(O)c3c(c(O)c2C1O)C(=O)c1cccc(O)c1C3=O (configuration not stated) (tested in a mixture with another compound)
inactive: dose: 0.25 mg/kg/injection, schedule: Q04DX003 (ip), vehicle: other 102 % of control | dose: 30.0 micrograms/kg/injection, schedule: Q01DX009 (ip), vehicle: other 107 % of control | dose: 60.0 micrograms/kg/injection, schedule: Q01DX009 (ip), vehicle: other 106 % of control | dose: 130.0 micrograms/kg/injection, schedule: Q01DX009 (ip), vehicle: other 98 % of control

CCCCn1nnc2cc(-c3c(N)nc(N)nc3CC)ccc21
inactive: [9] 87 % of control | [10] 89 % of control | [13] 89 % of control

N#CC1CC2(CCC1=O)c1ccccc1-c1ccccc12 (configuration not stated)
inactive: dose: 25.0 mg/kg/injection, schedule: Q04DX002 (ip), vehicle: saline with Tween-80 92 % of control | dose: 50.0 mg/kg/injection, schedule: Q04DX002 (ip), vehicle: saline with Tween-80 98 % of control

N#Cc1cc(Cl)ccc1N=Cc1c(Cl)cccc1Cl
inactive: [11] 100 % of control | [12] 105 % of control | dose: 200.0 mg/kg/injection, schedule: Q01DX009 (ip), vehicle: Klucel (hydroxypropylcellulose) (HPC) 100 % of control

CCOC(=O)C1=NN(c2ccccc2)C(C)(C(=O)OC)C1 (configuration not stated)
inactive: [14] 98 % of control | [15] 98 % of control | [16] 95 % of control

COC(=O)c1c(-c2ccccc2)c(C=O)n(C)c1C
inactive: [5] 99 % of control | [6] 98 % of control | [7] 91 % of control

CCC(C)C(=O)Nc1ccccc1-c1ccccc1 (configuration not stated)
inactive: [17] 99 % of control | [1] 100 % of control | [2] 103 % of control | [3] 91 % of control

CC(=O)SCCCn1c(=O)n(CCCSC(C)=O)c(=O)n(CCCSC(C)=O)c1=O
inactive: dose: 50.0 mg/kg/injection, schedule: Q01DX005 (ip), vehicle: saline + Tween-80 + alcohol 114 % of control | dose: 100.0 mg/kg/injection, schedule: Q01DX005 (ip), vehicle: saline + Tween-80 + alcohol 110 % of control | dose: 200.0 mg/kg/injection, schedule: Q01DX005 (ip), vehicle: saline + Tween-80 + alcohol 116 % of control
